The test concerns the target T1, α1A-ARs (Homo sapiens, UniProt P35348).
T1 sequence (P35348 1-466): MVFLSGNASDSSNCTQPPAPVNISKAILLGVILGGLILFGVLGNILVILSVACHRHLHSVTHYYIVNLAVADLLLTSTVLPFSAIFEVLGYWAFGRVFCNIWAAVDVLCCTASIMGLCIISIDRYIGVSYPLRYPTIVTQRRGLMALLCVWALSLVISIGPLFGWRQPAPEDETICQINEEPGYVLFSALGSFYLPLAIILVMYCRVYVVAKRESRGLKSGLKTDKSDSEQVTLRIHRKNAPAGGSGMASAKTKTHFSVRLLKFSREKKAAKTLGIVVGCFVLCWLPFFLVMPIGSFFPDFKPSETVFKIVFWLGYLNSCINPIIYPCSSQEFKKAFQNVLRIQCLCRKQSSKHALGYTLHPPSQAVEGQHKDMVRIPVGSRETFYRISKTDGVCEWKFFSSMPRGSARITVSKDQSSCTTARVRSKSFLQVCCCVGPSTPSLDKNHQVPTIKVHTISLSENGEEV
Kind of test: Calcium flux assay (Calcium 6 dye) in cells expressing an α1-AR. The format is cell-based. Conditions: for Emax: read-out: Average Emax (% epi); for EC50: read-out: Average pEC50 (converted). An excerpt: Calcium flux experimental design: alpha-1 adrenergic receptors (α1-ARs) couple to Gq proteins, which results in downstream activation of phospholipase C and release of calcium from intracellular stores. Intracellular calcium increase upon α1-AR activation can be detected by Calcium 6 dye.
Cell preparation: cells expressing an α1-AR were washed in warmed phosphate-buffered saline to remove medium and harvested using versene (Caisson Labs, catalog #EDL01).
Media was removed from cells by tapping plates upside-down on absorbent wipes, followed by 15 second upside-down 50×g centrifugation, again on absorbent wipes. 12 μL cell dye solution was added to cells using a reagent dispenser (Integra viaFILL) and cells were incubated for 90 minutes at 37° C., 5% CO2.
Compound preparation: candidate alpha-adrenergic compounds, dissolved to 10 mM in DMSO, were diluted in assay buffer (HBSS/HEPES containing 2 mM CaCl2) and 2 mM probenecid sodium salt). […] On all assay plates, vehicle (DMSO) and positive control (10 μM epinephrine) conditions were included on the plate, as well as a dose-response curve of epinephrine. […] 384 well compound plates were centrifuged briefly at 250×g, sealed (Axygen PCR-SP) and incubated at 37° C. until the 90 minute cell dye incubation was complete.
Calcium 6 stained cells and 384 well compound plates were loaded onto the Flexstation and incubated on the machine for 5 minutes before initiating the assay.
For each assay well, baseline Calcium 6 fluorescence was detected for 18 seconds prior to 12 μL compound addition at 12 μL per second. Changes in Calcium 6 fluorescence were detected for a further 22 seconds, for a total read time of 40 seconds. All detection was performed with medium gain sensitivity, bottom read, with 6 flashes per read.
Data analysis: for calcium flux, analysis of maximum change from baseline over the 40-second read time was determined using Softmax Pro and data was exported as raw text files. Potency estimates (EC50) were derived from dose response curves (maximum change from baseline versus the log concentration of test compound) fit by four-parameter nonlinear regression using Graphpad Prism. Efficacy was determined by comparing the magnitude of the test compound signal window (fitted curve max−min) with the signal window of the full agonist control, epinephrine. […] All experiments were repeated a minimum of three times, with the average (mean) potency and maximum effect relative to the within-plate full agonist dose-response comparator reported.

Setting [1] is: α1A-AR calcium flux, mean of at least three experiments.
The mark [2] stands for this setting: α1A-AR calcium flux, relative to full agonist epinephrine, mean of at least three experiments.

Read-outs that look alike come from different tables or passages of the source.

Regarding `Cc1cn(CC2=NCCN2)c2c(Cl)ccc(C(C)C)c12` [Compound 5], the maximal response (Emax) is > 61%. In addition, the EC50 under setting [1] is 10 to 977 nM.

`Fc1cc(Cl)c2c(c1)c(C1CC1)cn2CC1=NCCN1` [Compound 8]: the Emax was < 20%. Also, the EC50 under setting [1] was 10 to 977 nM.

Regarding `Clc1cccc2c(-c3ncco3)nn(CC3=NCCN3)c12` [Compound 55], the EC50 under setting [1] is > 1000 nM. Also, the Emax under setting [2] is < 20%.

On to `CC(F)(F)c1cc(Cl)cc2c(Cl)nn(CC3=NCCN3)c12` [Compound 72], for which the EC50 under setting [1] was 10 to 977 nM. In addition, the Emax under setting [2] is > 61%.

With `Clc1nn(CC2=NCCN2)c2c(-n3cccc3)cccc12` [Compound 33], the EC50 under setting [1] is 10 to 977 nM. Also, the Emax under setting [2] was > 61%.

Turning to `FC(F)(F)c1nn(CC2=NCCN2)c2c(Cl)cccc12` [Compound 25], the Emax lay within 21 to 60%. Under setting [1], the EC50 is 10 to 977 nM.

As to `FC(F)c1cccc2c(Cl)nn(CC3=NCCN3)c12` [Compound 43], the maximum response (Emax) is < 20%. In addition, the EC50 under setting [1] was > 1000 nM.

Consider `CC(C)(C)c1nn(CC2=NCCN2)c2c(Cl)cccc12` [Compound 16], for which the Emax is < 20%. Moreover, under setting [1], the EC50 was > 1000 nM.

Turning to `COc1ccc(C(C)C)c2ccn(CC3=NCCN3)c12` [Compound 7], the Emax was > 61%. The EC50 under setting [1] is 10 to 977 nM.

In the case of `Clc1cccc2ccn(CC3=NCCN3)c12` [Compound 13], the maximal response (Emax) fell in the range of 21 to 60%. In addition, the EC50 under setting [1] was 10 to 977 nM.

On to `Clc1cccc2c(-c3ccon3)nn(CC3=NCCN3)c12` [Compound 63], for which the EC50 under setting [1] is 10 to 977 nM. Further, under setting [2], the maximum response (Emax) was > 61%.

With `Clc1nn(CC2=NCCN2)c2c(-c3ccccc3)cccc12` [Compound 34], the EC50 under setting [1] was 10 to 977 nM. Also, under setting [2], the maximal effect (Emax) lay in the range of 21 to 60%.

In the case of `CC(C)Oc1cccc2c(Cl)nn(CC3=NCCN3)c12` [Compound 38], the maximal response (Emax) lay within 21 to 60%. Besides, the EC50 under setting [1] was > 1000 nM.

In the case of `Clc1nn(CC2=NCCN2)c2c(-c3cnccn3)cccc12` [Compound 52], the EC50 under setting [1] was > 1000 nM. Besides, the maximal effect (Emax) under setting [2] is < 20%.

On to `Clc1ccc2c(Cl)nn(CC3=NCCN3)c2c1` [Compound 32], for which the maximal effect (Emax) is > 61%. Also, the EC50 under setting [1] was 10 to 977 nM.

With `Clc1cccc2c(-c3ccccc3)nn(CC3=NCCN3)c12` [Compound 42], the EC50 under setting [1] is > 1000 nM. Moreover, the maximum response (Emax) under setting [2] lay within 21 to 60%.

Turning to `Cc1cccc2c(C(F)(F)F)nn(CC3=NCCN3)c12` [Compound 61], the maximal response (Emax) is < 20%. Also, under setting [1], the EC50 was > 1000 nM.

Take `CCc1cccc2c(Cl)nn(CC3=NCCN3)c12` [Compound 40]: the Emax was > 61%. The EC50 under setting [1] is 10 to 977 nM.

For `Fc1ccc2c(Cl)nn(CC3=NCCN3)c2c1Cl` [Compound 24], the Emax was > 61%. Further, under setting [1], the EC50 was 10 to 977 nM.

As to `FC(F)(F)Cc1cccc2c(Cl)nn(CC3=NCCN3)c12` [Compound 53], the EC50 under setting [1] is > 1000 nM. In addition, the Emax under setting [2] lay within 21 to 60%.

In the case of `Cc1cc(C(F)(F)F)cc2c(Cl)nn(CC3=NCCN3)c12` [Compound 73], the EC50 under setting [1] was 10 to 977 nM. Moreover, under setting [2], the Emax was > 61%.

In the case of `FC(F)(F)c1cccc2c(N3CCCC3)nn(CC3=NCCN3)c12` [Compound 71], the EC50 under setting [1] is > 1000 nM. For the same compound, the maximal response (Emax) under setting [2] is < 20%.

`Clc1cccc2c(-c3cccnc3)nn(CC3=NCCN3)c12` [Compound 14]: the EC50 under setting [1] was > 1000 nM. Moreover, under setting [2], the Emax was < 20%.

Turning to `Clc1cccc2c1c(Cl)nn2CC1=NCCN1` [Compound 45], the maximal effect (Emax) was < 20%. Under setting [1], the EC50 was > 1000 nM.

`Cc1cc(Cl)cc2c(N3CCCCC3)nn(CC3=NCCN3)c12` [Compound 69]: the EC50 under setting [1] was > 1000 nM. Also, the maximal effect (Emax) under setting [2] was < 20%.

As to `Cc1cc(F)cc2c(Cl)nn(CC3=NCCN3)c12` [Compound 50], the maximal response (Emax) was < 20%. In addition, the EC50 under setting [1] is > 1000 nM.

For `FC(F)(F)c1cccc2c(Cl)nn(CC3=NCCN3)c12` [Compound 27], the Emax was > 61%. Under setting [1], the EC50 is 10 to 977 nM.

On to `Clc1cccc2c(C3CC3)cn(CC3=NCCN3)c12` [Compound 3], for which the Emax lay within 21 to 60%. The EC50 under setting [1] is < 9.77 nM.

On to `Clc1nn(CC2=NCCN2)c2c(N3CCCC3)cccc12` [Compound 67], for which, under setting [1], the EC50 was > 1000 nM. The Emax under setting [2] fell in the range of 21 to 60%.

In the case of `Clc1nn(CC2=NCCN2)c2c(-c3ccon3)cccc12` [Compound 59], the EC50 under setting [1] was > 1000 nM. For the same compound, under setting [2], the maximal response (Emax) is < 20%.

For `Clc1cccc2c(-c3ccccn3)nn(CC3=NCCN3)c12` [Compound 51], the EC50 under setting [1] was 10 to 977 nM. Under setting [2], the Emax fell in the range of 21 to 60%.

`Clc1nn(CC2=NCCN2)c2c(Cl)cccc12` [Compound 20]: the maximal response (Emax) is > 61%. Besides, the EC50 under setting [1] was 10 to 977 nM.

As for `Cc1cc2cccc(Cl)c2n1CC1=NCCN1` [Compound 19], the Emax is < 20%. In addition, under setting [1], the EC50 is > 1000 nM.

With `Clc1cccc2c(-c3ccncc3)nn(CC3=NCCN3)c12` [Compound 49], the EC50 under setting [1] was 10 to 977 nM. For the same compound, the Emax under setting [2] fell in the range of 21 to 60%.

As for `Clc1cccc2c(-n3cccc3)nn(CC3=NCCN3)c12` [Compound 58], the EC50 under setting [1] was 10 to 977 nM. In addition, under setting [2], the Emax is > 61%.

For the compound `Clc1cccc2c(C3=CCOCC3)nn(CC3=NCCN3)c12` [Compound 54], the EC50 under setting [1] is > 1000 nM. The Emax under setting [2] was in the range of 21 to 60%.

In the case of `Fc1cc(Cl)c2c(c1)c(Cl)nn2CC1=NCCN1` [Compound 23], the maximal response (Emax) was > 61%. Under setting [1], the EC50 was 10 to 977 nM.

Turning to `Clc1cccc2c(-n3cccn3)nn(CC3=NCCN3)c12` [Compound 60], under setting [1], the EC50 is > 1000 nM. Besides, the Emax under setting [2] was > 61%.

For the compound `Clc1cccc2cnn(CC3=NCCN3)c12` [Compound 15], the Emax was < 20%. Further, the EC50 under setting [1] is > 1000 nM.

In the case of `Fc1ccc2c(C3CC3)cn(CC3=NCCN3)c2c1Cl` [Compound 12], the maximal response (Emax) lay within 21 to 60%. In addition, the EC50 under setting [1] is < 9.77 nM.

`CC(C)c1ccc(Cl)c2c1c(S(C)(=O)=O)cn2CC1=NCCN1` [Compound 9]: the EC50 under setting [1] was > 1000 nM. In addition, under setting [2], the maximal response (Emax) is < 20%.

In the case of `Clc1nn(CC2=NCCN2)c2c(-n3cccn3)cccc12` [Compound 36], under setting [1], the EC50 is 10 to 977 nM. In addition, the Emax under setting [2] was in the range of 21 to 60%.

As for `Cc1cccc2c(N3CCCCC3)nn(CC3=NCCN3)c12` [Compound 68], the EC50 under setting [1] is > 1000 nM. Besides, under setting [2], the Emax was < 20%.

With `FC(F)(F)c1cc(Cl)cc2c(Cl)nn(CC3=NCCN3)c12` [Compound 64], under setting [1], the EC50 was > 1000 nM. Further, the maximum response (Emax) under setting [2] is < 20%.

Consider `Cc1cc(Cl)cc2c(N3CCCC3)nn(CC3=NCCN3)c12` [Compound 66], for which, under setting [1], the EC50 was 10 to 977 nM. In addition, the maximum response (Emax) under setting [2] lay in the range of 21 to 60%.

As for `Cc1cc2c(C(C)C)ccc(Cl)c2n1CC1=NCCN1` [Compound 10], the maximal effect (Emax) is > 61%. The EC50 under setting [1] was 10 to 977 nM.

In the case of `Fc1cc(C(F)(F)F)c2c(c1)c(Cl)nn2CC1=NCCN1` [Compound 65], the EC50 under setting [1] is 10 to 977 nM. The Emax under setting [2] was > 61%.

For the compound `Cc1ccnc2c(Cl)nn(CC3=NCCN3)c12` [Compound 30], the Emax is > 61%. In addition, the EC50 under setting [1] is 10 to 977 nM.

Turning to `CC(F)(F)c1cccc2c(Cl)nn(CC3=NCCN3)c12` [Compound 39], the Emax lay within 21 to 60%. The EC50 under setting [1] was 10 to 977 nM.

`Cc1cc(Cl)cc2c(Cl)nn(CC3=NCCN3)c12` [Compound 46]: the Emax was > 61%. Also, the EC50 under setting [1] was 10 to 977 nM.

Take `CC(F)(F)c1cc(F)cc2c(Cl)nn(CC3=NCCN3)c12` [Compound 75]: the EC50 under setting [1] was 10 to 977 nM. Besides, the maximum response (Emax) under setting [2] lay within 21 to 60%.

On to `Clc1cn(-c2cn[nH]c2)c2cc(CC3=NCCN3)ccc12` [Compound 4], for which the EC50 under setting [1] is > 1000 nM. Further, the Emax under setting [2] is < 20%.

For the compound `Cc1cccc2c(C(C)(F)F)nn(CC3=NCCN3)c12` [Compound 62], the maximal response (Emax) is > 61%. For the same compound, the EC50 under setting [1] was 10 to 977 nM.

The values are drawn from patent US20250188060A1, “ALPHA1A-ADRENERGIC RECEPTOR AGONISTS AND METHODS OF USE” (CuraSen Therapeutics, Inc., priority 2022, published 2025).
